Test results from PubChem BioAssay AID248 (DTP/NCI, 2004).
“And” between values parts separate entries of the source, which are not always exact repeats. Equal entries are not always repeated. Inconclusive results and toxic doses are left out. Cut-off read from the data, not from the text of the source: active = T/C of 150% or more; inactive = T/C below 125%.

Test system: L1210 leukemia ip in BDF1 mice, survival T/C
Assay: NCI In Vivo Anticancer Drug Screen. Data for tumor model L1210 Leukemia (intraperitoneal) in B6D2F1 (BDF1) mice
Settings: endpoint: mean survival time, higher = longer survival
Outline: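 Survival endpoint. Drug-treated group vs vehicle group, expressed as T divided by C. Tumor passaged by transplantation.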

[1] = dose: 100.0 mg/kg/injection, schedule: Q04DX003 (ip), vehicle: saline with Tween-80
[2] = dose: 200.0 mg/kg/injection, schedule: Q04DX003 (ip), vehicle: saline with Tween-80
[3] = dose: 400.0 mg/kg/injection, schedule: Q04DX003 (ip), vehicle: saline with Tween-80
[4] = dose: 100.0 mg/kg/injection, schedule: Q04DX002 (ip), vehicle: Klucel (hydroxypropylcellulose) (HPC)
[5] = dose: 200.0 mg/kg/injection, schedule: Q04DX002 (ip), vehicle: Klucel (hydroxypropylcellulose) (HPC)
[6] = dose: 400.0 mg/kg/injection, schedule: Q04DX002 (ip), vehicle: Klucel (hydroxypropylcellulose) (HPC)
[7] = dose: 400.0 mg/kg/injection, schedule: Q04DX002 (ip), vehicle: saline with Tween-80
[8] = dose: 100.0 mg/kg/injection, schedule: Q01DX009 (ip), vehicle: saline
[9] = dose: 200.0 mg/kg/injection, schedule: Q01DX009 (ip), vehicle: saline
[10] = dose: 400.0 mg/kg/injection, schedule: Q01DX009 (ip), vehicle: saline
[11] = dose: 100.0 mg/kg/injection, schedule: Q01DX001 (ip), vehicle: saline with Tween-80
[12] = dose: 100.0 mg/kg/injection, schedule: Q01DX009 (ip), vehicle: saline with Tween-80
[13] = dose: 200.0 mg/kg/injection, schedule: Q01DX001 (ip), vehicle: saline with Tween-80
[14] = dose: 200.0 mg/kg/injection, schedule: Q01DX009 (ip), vehicle: saline with Tween-80
[15] = dose: 400.0 mg/kg/injection, schedule: Q01DX001 (ip), vehicle: saline with Tween-80
[16] = dose: 400.0 mg/kg/injection, schedule: Q01DX009 (ip), vehicle: saline with Tween-80
[17] = dose: 100.0 mg/kg/injection, schedule: Q04DX002 (ip), vehicle: saline with Tween-80
[18] = dose: 200.0 mg/kg/injection, schedule: Q04DX002 (ip), vehicle: saline with Tween-80

Measured: T/C

Cc1cc(OC(=O)Nc2ccccc2)ccc1Cl
inactive: dose: 100.0 mg/kg/injection, schedule: Q04DX002 (ip), vehicle: saline + alcohol 100 % of control | dose: 200.0 mg/kg/injection, schedule: Q04DX002 (ip), vehicle: saline + alcohol 100 % of control | dose: 400.0 mg/kg/injection, schedule: Q04DX002 (ip), vehicle: saline + alcohol 96 % of control

CNC(=O)NC1C(O)C(OC)OC2COC(c3ccccc3)OC21 (stereo unspecified)
inactive: [1] 92 % of control | [2] 92 % of control

CC(=O)C1=CN(c2ccccc2)COC1C (stereo unspecified)
inactive: dose: 50.0 mg/kg/injection, schedule: Q01DX009 (ip), vehicle: Klucel (hydroxypropylcellulose) (HPC) 107 % of control | dose: 100.0 mg/kg/injection, schedule: Q01DX009 (ip), vehicle: Klucel (hydroxypropylcellulose) (HPC) 91 % of control | dose: 200.0 mg/kg/injection, schedule: Q01DX009 (ip), vehicle: Klucel (hydroxypropylcellulose) (HPC) 100 % of control

CCCCCCCCCCCCCCCCCC[N+](C)(C)C
inactive: dose: 1.0 mg/kg/injection, schedule: Q01DX015 (ip), vehicle: saline 94 % of control | dose: 2.0 mg/kg/injection, schedule: Q01DX015 (ip), vehicle: saline 94 % of control | dose: 3.12 mg/kg/injection, schedule: Q01DX009 (ip), vehicle: saline 94 % of control | dose: 4.0 mg/kg/injection, schedule: Q01DX015 (ip), vehicle: saline 95 % of control | dose: 6.25 mg/kg/injection, schedule: Q01DX009 (ip), vehicle: saline 94 % of control | dose: 12.5 mg/kg/injection, schedule: Q04DX003 (ip), vehicle: saline 87 % of control

O=C(Nc1cccc2c1C(=O)c1cccc(Cl)c1C2=O)c1ccccc1
inactive: [1] 87 % of control | [2] 89 % of control | [3] 86 % of control

O=C(O)C1(Nc2ccc(-c3ccc(NC4(C(=O)O)CCCC4)cc3)cc2)CCCC1
inactive: dose: 50.0 mg/kg/injection, schedule: Q01DX001 (ip), vehicle: carboxymethylcellulose (CMC) 90 % of control | dose: 100.0 mg/kg/injection, schedule: Q01DX001 (ip), vehicle: carboxymethylcellulose (CMC) 90 % of control | dose: 200.0 mg/kg/injection, schedule: Q01DX001 (ip), vehicle: carboxymethylcellulose (CMC) 88 % of control | dose: 400.0 mg/kg/injection, schedule: Q01DX001 (ip), vehicle: carboxymethylcellulose (CMC) 88 % of control

CCCCN(CC)C(=S)[S-].CCCCN(CC)C(=S)[S-].[Zn]
inactive: dose: 2.5 mg/kg/injection, schedule: Q01DX009 (ip), vehicle: saline 100 % of control | dose: 5.0 mg/kg/injection, schedule: Q01DX009 (ip), vehicle: saline 95 % of control | dose: 10.0 mg/kg/injection, schedule: Q01DX001 (ip), vehicle: saline 98 % of control | dose: 10.0 mg/kg/injection, schedule: Q01DX009 (ip), vehicle: saline 95 % of control | dose: 10.0 mg/kg/injection, schedule: Q04DX003 (ip), vehicle: saline 105 % of control | dose: 20.0 mg/kg/injection, schedule: Q01DX001 (ip), vehicle: saline 89 % of control | dose: 20.0 mg/kg/injection, schedule: Q04DX003 (ip), vehicle: saline 103 % of control | dose: 40.0 mg/kg/injection, schedule: Q01DX001 (ip), vehicle: saline 91 % of control

CC(C)=CCC/C(C)=C\COc1ccc(C(C)(C)C)cc1
inactive: [4] 96 % of control | [5] 100 % of control | [6] 89 % of control

OCC1OCOC2C(CO)OCOC12 (stereo unspecified)
inactive: dose: 25.6 mg/kg/injection, schedule: Q04DX002 (ip), vehicle: saline with Tween-80 104 % of control | dose: 64.0 mg/kg/injection, schedule: Q04DX002 (ip), vehicle: saline with Tween-80 101 % of control | dose: 160.0 mg/kg/injection, schedule: Q04DX002 (ip), vehicle: saline with Tween-80 101 % of control | [7] 96 % of control

O=CN1CCCc2cc(C(=O)O)ccc21
inactive: [8] 90 % of control | [9] 93 % of control | [10] 86 % of control

NC(Cc1ccc(OCc2ccccc2)cc1)C(=O)O (stereo unspecified)
inactive: [11] 92 % of control | [12] 95 % of control | [13] 89 % of control | [14] 90 % of control | [15] 89 % of control | [16] 96 % of control

CC(=O)c1ccc2c3ccccc3n(CCCN3CCC(O)CC3)c2c1
inactive: dose: 100.0 mg/kg/injection, schedule: Q04DX002 (ip), vehicle: saline 95 % of control | dose: 200.0 mg/kg/injection, schedule: Q04DX002 (ip), vehicle: saline 113 % of control

O=C(O)c1cccc(C(=O)O)n1
inactive: dose: 75.0 mg/kg/injection, schedule: Q01DX001 (ip), vehicle: acetone 98 % of control | dose: 150.0 mg/kg/injection, schedule: Q01DX001 (ip), vehicle: acetone 97 % of control

CC(C(=O)c1ccc(Br)cc1)C(O)(C(F)(F)F)C(F)(F)F (stereo unspecified)
inactive: dose: 100.0 mg/kg/injection, schedule: Q01DX007 (ip), vehicle: saline with Tween-80 102 % of control | dose: 200.0 mg/kg/injection, schedule: Q01DX007 (ip), vehicle: saline with Tween-80 109 % of control | dose: 400.0 mg/kg/injection, schedule: Q01DX007 (ip), vehicle: saline with Tween-80 101 % of control

CCOC(=O)c1nc(SCc2ccccc2)n(Cc2ccccc2)c1C(=O)OCC
inactive: [11] 109 % of control | [12] 104 % of control and 107 % of control | [17] 102 % of control and 108 % of control | [1] 91 % of control | [13] 101 % of control | [14] 102 % of control and 111 % of control | [18] 101 % of control and 87 % of control | [2] 107 % of control | [15] 95 % of control | [16] 101 % of control and 102 % of control | [7] 97 % of control and 104 % of control | [3] 101 % of control

CCCCCCCCCCCCCCCCCC(=O)Oc1cccc2cccnc12
inactive: [17] 93 % of control | [18] 93 % of control | [7] 106 % of control

CC(=O)Nc1ccc2c(c1)C(NC(=O)/C=C\C(=O)O)c1ccccc1-2 (stereo unspecified)
inactive: [1] 111 % of control | [2] 98 % of control | [3] 107 % of control

CNc1cc(Cl)c(C#N)c(Cl)c1
inactive: dose: 100.0 mg/kg/injection, schedule: Q01DX001 (ip), vehicle: Klucel (hydroxypropylcellulose) (HPC) 105 % of control | dose: 100.0 mg/kg/injection, schedule: Q04DX003 (ip), vehicle: Klucel (hydroxypropylcellulose) (HPC) 94 % of control | dose: 200.0 mg/kg/injection, schedule: Q01DX001 (ip), vehicle: Klucel (hydroxypropylcellulose) (HPC) 105 % of control | dose: 200.0 mg/kg/injection, schedule: Q04DX003 (ip), vehicle: Klucel (hydroxypropylcellulose) (HPC) 100 % of control | dose: 400.0 mg/kg/injection, schedule: Q01DX001 (ip), vehicle: Klucel (hydroxypropylcellulose) (HPC) 103 % of control | dose: 400.0 mg/kg/injection, schedule: Q04DX003 (ip), vehicle: Klucel (hydroxypropylcellulose) (HPC) 99 % of control

O=C(Nc1cc([N+](=O)[O-])ccc1Cl)SCc1ccccc1
inactive: [12] 102 % of control | [14] 98 % of control | [16] 102 % of control

O=C(NN=C1CCCC1)c1ccccc1O
inactive: [8] 102 % of control | [9] 102 % of control | [10] 120 % of control

COc1ccc(Cc2ccc(O)cc2)cc1
inactive: dose: 100.0 mg/kg/injection, schedule: Q04DX003 (ip), vehicle: other 90 % of control | dose: 200.0 mg/kg/injection, schedule: Q04DX003 (ip), vehicle: other 93 % of control | dose: 400.0 mg/kg/injection, schedule: Q04DX003 (ip), vehicle: other 98 % of control

COc1ncnc2c1ccn2C1OC(CO)C(O)C1O (stereo unspecified)
inactive: dose: 25.0 mg/kg/injection, schedule: Q01DX001 (ip), vehicle: saline 86 % of control | dose: 50.0 mg/kg/injection, schedule: Q01DX001 (ip), vehicle: saline 101 % of control | dose: 100.0 mg/kg/injection, schedule: Q01DX001 (ip), vehicle: saline 101 % of control

O=C(CCl)NC1C2CC3CC(C2)CC1C3 (stereo unspecified)
inactive: [4] 104 % of control | [5] 101 % of control | [6] 96 % of control
